Source: patent publication US20060079453A1, “Hla binding peptides and their uses” (priority 2002, published 2006)
Like-named read-outs stand apart in the source and are kept apart here. No end group written: not given here.

Experiments:
Experiment in all cases: biochemical
Assay type in all cases: binding
HLA-A*2301 = HLA-A*2301 (Homo sapiens, UniProt P04439, D101N/D140Y/D185E/E176V/E190D/F33S/G103R/G107R/H175R/I119L/I121M/I306V/K168Q/K335N/L105A/L300P/N151K/N90K/P307H/Q86E/Q94H/R106L/R138H/R89G/T104I/T345S/V100E/W191G/Y123F)
HLA-A*3002 = HLA-A*3002 (Homo sapiens, UniProt P04439, D101N/D140H/D185E/E176R/F33S/G80R/H175R/K168Q/Q94H/R138E/R41S/V100E)
HLA-A*0206 = HLA-A*0206 (Homo sapiens, UniProt P04439, D140Y/D185E/D98H/E176V/E277Q/F33Y/G131W/G231S/I119V/I121R/I166T/I218V/L300P/L318F/N151K/N90K/P208A/P217A/Q86G/Q94H/R138H/R169H/T345S)
HLA-A*0202 = HLA-A*0202 (Homo sapiens, UniProt P04439, D140Y/D185E/D98H/E176V/E277Q/G131W/G231S/I119L/I121R/I166T/I218V/L180W/L300P/L318F/N151K/N90K/P208A/P217A/Q67R/Q86G/Q94H/R138H/R169H/T345S)
HLA-A*0203 = HLA-A*0203 (Homo sapiens, UniProt P04439, A173T/D140Y/D185E/D98H/E277Q/G131W/G231S/I119V/I121R/I166T/I218V/L180W/L300P/L318F/N151K/N90K/P208A/P217A/Q86G/Q94H/R138H/R169H/T345S)
HLA-A*0201 = HLA-A*0201 (Homo sapiens, UniProt P04439, D140Y/D185E/D98H/E176V/E277Q/G131W/G231S/I119V/I121R/I166T/I218V/L300P/L318F/N151K/N90K/P208A/P217A/Q86G/Q94H/R138H/R169H/T345S)
HLA-A*6802 = HLA-A*6802 (Homo sapiens, UniProt P04439, A269V/D140Y/D185E/E176V/E277Q/E87N/F33Y/G231S/I121R/I166T/I218V/L180W/L300P/L318F/N151K/P208A/P217A/Q86R/R138H/R169H/S129P/T345S/V36M)
[1] = A*0206 binding affinity (expressed as an IC50)
[2] = A*0202 binding affinity (expressed as an IC50)
[3] = A*0203 binding affinity (expressed as an IC50)
[4] = A*0201 binding affinity (expressed as an IC50)
[5] = A*6802 binding affinity (expressed as an IC50)

Compound	IC50 (HLA-A*2301) [nM]	IC50 (HLA-A*3002) [nM]	IC50 (HLA-A*0206; [1]) [nM]	IC50 (HLA-A*0202; [2]) [nM]	IC50 (HLA-A*0203; [3]) [nM]	IC50 (HLA-A*0201; [4]) [nM]	IC50 (HLA-A*6802; [5]) [nM]	IC50 (HLA-A*0206) [nM]	IC50 (HLA-A*0202) [nM]	IC50 (HLA-A*0203) [nM]	IC50 (HLA-A*0201) [nM]	IC50 (HLA-A*6802) [nM]
CC(C)C[C@H](NC(=O)[C@@H](N)CCCNC(=N)N)C(=O)N[C@@H](C)C(=O)N[C@@H](Cc1c[nH]cn1)C(=O)N[C@@H](CCC(=O)O)C(=O)N[C@H](C(=O)NCC(=O)N[C@@H](Cc1c[nH]c2ccccc12)C(=O)N[C@@H](CCCCN)C(=O)N[C@@H](Cc1ccc(O)cc1)C(=O)O)C(C)C	4630	3.8										
DFFLKSKFNI	304											
ELVSEFSRV			197	969	53	8180	23					
FAPGFFPYL			2.3	0.85	44	48	7.6					
FLKEKGGLDGV								3210	3.7	11	332	3810
FLPGPGPGSV			665	18	4	98	332					
FLPSGPGPGV			64	1.2	3.4	21	40					
FMGVIYIMI			98	2.1	26	13	14500					
GLGAVSRDL								> 10400	436	1730	18700	> 16700
GLIYSKKRQEV								> 8560	57	152	8970	> 14300
GVLGWSPQV								28	157	389	22	9430
IISAVVGFL			234	1	4.8	747	77					
IISAVVGIV			958	15	20	712	390					
ILAEAMSQA								8.6	1	1.1	29	253
